Measured values as given in ChEMBL document CHEMBL4376817, “Drug Discovery Targeting Anaplastic Lymphoma Kinase (ALK)” (J Med Chem, 2019).
pIC50, pKi: −log10 of the molar value. Each block holds one molecule with its values, some of them ahead of it.

Columns and labels:
[1] = biological target: Vascular endothelial growth factor receptor 2 (Homo sapiens, UniProt P35968)
[2] = biological target: T1, ALK tyrosine kinase receptor (Homo sapiens, UniProt Q9UM73)
IMR-32 = assay: Cytotoxicity against human IMR32 cells; type: functional, cell-based
SH-SY5Y = assay: Cytotoxicity against human SH-SY5Y cells; type: functional, cell-based
physchem = conditions: octanol/water
NCI-H3122 [3] = assay: cells; conditions: Homo sapiens
[4] = biological target: Hepatocyte growth factor receptor (Homo sapiens, UniProt P08581); assay: Inhibition of c-MET (unknown origin) by kinome scan-based assay
NCI-H3122 [5] = assay: Cytotoxicity against human NCI-H3122 cells harboring EML4-ALK E13;A20 mutant incubated for 72 hrs by Cell titer blue assay; type: functional, cell-based; conditions: NCI-H3122, 72 h
NCI-H3122 [6] = assay: Potency index, ratio of crizotinib IC50 to test compound IC50 for cytotoxicity against human NCI-H3122 cells harboring EML4-ALK E13;A20 mutant; type: functional
[7] = biological target: T1, ALK tyrosine kinase receptor; remark: listed apart in the source

T1 sequence (Q9UM73 whole entry): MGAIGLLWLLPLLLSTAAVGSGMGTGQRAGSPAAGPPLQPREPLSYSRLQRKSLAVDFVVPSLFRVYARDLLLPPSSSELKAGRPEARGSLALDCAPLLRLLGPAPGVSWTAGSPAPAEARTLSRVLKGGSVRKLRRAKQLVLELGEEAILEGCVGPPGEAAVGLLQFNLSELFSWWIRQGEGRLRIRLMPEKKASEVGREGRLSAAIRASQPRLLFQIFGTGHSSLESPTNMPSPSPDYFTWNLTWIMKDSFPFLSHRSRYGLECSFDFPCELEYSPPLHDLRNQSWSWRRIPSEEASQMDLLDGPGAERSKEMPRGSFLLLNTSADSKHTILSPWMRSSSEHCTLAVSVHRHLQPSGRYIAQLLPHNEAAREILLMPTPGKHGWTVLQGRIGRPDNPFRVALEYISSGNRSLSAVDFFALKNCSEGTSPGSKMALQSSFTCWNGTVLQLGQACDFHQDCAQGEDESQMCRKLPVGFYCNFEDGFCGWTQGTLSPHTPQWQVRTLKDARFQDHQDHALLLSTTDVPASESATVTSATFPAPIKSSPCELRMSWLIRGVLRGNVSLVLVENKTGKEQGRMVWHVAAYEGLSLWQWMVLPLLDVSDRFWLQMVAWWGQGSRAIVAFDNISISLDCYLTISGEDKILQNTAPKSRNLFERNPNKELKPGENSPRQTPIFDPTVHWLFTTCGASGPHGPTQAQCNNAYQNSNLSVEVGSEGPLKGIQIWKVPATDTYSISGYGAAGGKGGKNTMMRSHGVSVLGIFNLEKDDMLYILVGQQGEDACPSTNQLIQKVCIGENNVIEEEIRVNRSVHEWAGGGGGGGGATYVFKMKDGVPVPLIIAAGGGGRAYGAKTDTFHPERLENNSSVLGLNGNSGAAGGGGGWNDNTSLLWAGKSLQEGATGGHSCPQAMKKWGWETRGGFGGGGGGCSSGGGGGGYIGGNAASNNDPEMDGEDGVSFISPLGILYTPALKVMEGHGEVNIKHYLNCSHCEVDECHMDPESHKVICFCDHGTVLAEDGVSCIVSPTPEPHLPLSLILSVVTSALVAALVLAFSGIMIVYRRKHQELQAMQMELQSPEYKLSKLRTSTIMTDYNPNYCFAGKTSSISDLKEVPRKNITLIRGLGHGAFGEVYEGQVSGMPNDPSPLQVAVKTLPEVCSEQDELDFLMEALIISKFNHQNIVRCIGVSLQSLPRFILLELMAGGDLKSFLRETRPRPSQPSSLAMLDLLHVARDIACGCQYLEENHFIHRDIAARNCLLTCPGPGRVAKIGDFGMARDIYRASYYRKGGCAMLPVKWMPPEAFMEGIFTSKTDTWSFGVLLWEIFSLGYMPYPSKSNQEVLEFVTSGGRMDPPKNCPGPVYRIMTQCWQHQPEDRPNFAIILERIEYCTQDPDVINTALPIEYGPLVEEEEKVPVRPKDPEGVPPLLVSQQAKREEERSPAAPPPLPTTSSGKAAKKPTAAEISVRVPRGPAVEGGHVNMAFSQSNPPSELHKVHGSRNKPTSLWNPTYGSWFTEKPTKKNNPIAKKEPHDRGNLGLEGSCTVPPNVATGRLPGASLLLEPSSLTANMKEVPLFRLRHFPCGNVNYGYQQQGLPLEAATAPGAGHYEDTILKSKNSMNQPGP
Chain of Hepatocyte growth factor receptor (P08581 whole entry): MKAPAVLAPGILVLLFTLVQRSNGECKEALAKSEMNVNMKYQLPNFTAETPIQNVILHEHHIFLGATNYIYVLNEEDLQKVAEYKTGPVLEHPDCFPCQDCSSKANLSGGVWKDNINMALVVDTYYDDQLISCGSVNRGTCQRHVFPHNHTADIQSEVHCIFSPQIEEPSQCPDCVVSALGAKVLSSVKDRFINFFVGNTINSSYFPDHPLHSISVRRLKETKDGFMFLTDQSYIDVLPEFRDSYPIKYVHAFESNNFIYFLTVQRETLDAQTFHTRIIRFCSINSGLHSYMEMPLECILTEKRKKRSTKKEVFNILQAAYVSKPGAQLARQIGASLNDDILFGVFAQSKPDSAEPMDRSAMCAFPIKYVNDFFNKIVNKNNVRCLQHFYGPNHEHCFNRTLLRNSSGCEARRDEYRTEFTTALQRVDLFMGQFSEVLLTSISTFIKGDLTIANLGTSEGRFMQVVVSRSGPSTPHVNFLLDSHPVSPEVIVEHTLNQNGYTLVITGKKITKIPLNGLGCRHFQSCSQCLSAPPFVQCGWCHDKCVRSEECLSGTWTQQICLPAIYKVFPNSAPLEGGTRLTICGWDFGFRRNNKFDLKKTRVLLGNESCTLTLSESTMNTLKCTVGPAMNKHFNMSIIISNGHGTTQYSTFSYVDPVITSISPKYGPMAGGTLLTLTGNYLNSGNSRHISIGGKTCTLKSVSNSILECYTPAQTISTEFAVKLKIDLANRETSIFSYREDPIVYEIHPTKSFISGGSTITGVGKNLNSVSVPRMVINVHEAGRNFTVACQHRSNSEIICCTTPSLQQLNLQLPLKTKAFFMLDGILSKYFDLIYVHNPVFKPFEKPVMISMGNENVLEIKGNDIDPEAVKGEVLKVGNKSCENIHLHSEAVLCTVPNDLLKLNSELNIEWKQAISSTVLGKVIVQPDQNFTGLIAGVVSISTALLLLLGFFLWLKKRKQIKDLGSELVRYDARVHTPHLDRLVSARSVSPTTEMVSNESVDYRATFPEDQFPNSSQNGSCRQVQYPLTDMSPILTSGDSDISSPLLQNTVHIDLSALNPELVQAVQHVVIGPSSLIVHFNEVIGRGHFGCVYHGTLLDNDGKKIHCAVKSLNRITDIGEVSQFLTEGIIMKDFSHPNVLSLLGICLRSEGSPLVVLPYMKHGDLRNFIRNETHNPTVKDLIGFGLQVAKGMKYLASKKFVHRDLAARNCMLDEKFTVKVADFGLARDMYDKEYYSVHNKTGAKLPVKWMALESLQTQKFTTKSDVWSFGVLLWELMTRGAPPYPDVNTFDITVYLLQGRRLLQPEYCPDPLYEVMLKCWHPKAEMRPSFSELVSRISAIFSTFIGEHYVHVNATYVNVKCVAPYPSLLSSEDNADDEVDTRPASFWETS
Chain of Vascular endothelial growth factor receptor 2 (P35968 whole entry): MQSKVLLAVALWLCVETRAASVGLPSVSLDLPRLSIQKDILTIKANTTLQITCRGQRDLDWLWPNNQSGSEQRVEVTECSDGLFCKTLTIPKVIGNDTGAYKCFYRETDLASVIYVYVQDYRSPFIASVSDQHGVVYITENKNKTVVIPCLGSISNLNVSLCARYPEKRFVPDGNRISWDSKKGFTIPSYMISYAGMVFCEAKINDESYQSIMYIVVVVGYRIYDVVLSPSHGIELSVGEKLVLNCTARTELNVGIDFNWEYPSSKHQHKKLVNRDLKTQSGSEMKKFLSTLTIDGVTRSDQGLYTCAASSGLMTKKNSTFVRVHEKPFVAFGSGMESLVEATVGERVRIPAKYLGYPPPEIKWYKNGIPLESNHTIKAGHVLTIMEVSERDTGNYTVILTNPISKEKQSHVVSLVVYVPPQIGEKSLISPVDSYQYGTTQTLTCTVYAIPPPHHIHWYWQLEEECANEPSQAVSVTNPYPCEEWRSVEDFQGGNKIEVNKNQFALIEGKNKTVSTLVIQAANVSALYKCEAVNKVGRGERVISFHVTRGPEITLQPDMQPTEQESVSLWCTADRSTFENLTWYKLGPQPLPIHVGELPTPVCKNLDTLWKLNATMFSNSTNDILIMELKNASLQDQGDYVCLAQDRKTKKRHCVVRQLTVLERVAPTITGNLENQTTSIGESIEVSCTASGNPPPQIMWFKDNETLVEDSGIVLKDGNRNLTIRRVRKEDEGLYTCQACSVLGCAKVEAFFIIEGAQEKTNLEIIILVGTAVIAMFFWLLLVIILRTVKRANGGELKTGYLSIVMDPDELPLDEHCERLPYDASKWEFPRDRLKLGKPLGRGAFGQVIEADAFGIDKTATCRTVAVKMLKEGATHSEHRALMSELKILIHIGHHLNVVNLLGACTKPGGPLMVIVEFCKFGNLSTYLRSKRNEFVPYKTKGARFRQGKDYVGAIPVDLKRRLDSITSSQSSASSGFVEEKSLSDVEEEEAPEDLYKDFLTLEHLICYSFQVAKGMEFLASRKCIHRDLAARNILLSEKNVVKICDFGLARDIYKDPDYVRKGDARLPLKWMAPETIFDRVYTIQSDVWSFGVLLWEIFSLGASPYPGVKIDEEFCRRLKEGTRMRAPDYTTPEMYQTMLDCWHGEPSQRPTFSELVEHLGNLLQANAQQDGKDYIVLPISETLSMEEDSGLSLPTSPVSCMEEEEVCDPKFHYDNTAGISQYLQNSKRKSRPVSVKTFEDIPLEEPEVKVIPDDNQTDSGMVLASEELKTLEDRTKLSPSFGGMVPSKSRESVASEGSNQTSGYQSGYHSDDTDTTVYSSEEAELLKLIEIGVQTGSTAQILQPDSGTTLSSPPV

pIC50 [1]: < 5.30
SMILES: CCc1cc2c(cc1N1CCN(C3COC3)CC1)C(C)(C)c1[nH]c3cc(C#N)ccc3c1C2=O

pKi [2]: 9.12
SMILES: COc1cc(N2CCC(N)CC2)ccc1Nc1ncc(Cl)c(-c2c[nH]c3ccccc23)n1
pIC50 (IMR-32): 8.55 | pIC50 (SH-SY5Y): 8.77

logD (physchem): 2.2
SMILES: Cc1nn(C)c2c1Cc1cnc(N)c(c1)O[C@H](C)c1cc(F)ccc1C(=O)N(C)C2

pIC50 (NCI-H3122 [3]): 8.05
SMILES: CCc1cc2c(cc1N1CCC(N3CCOCC3)CC1)C(C)(C)c1[nH]c3cc(C#N)ccc3c1C2=O [ALECTINIB]

pIC50 [4]: 9.13 | pIC50 [7]: > 9.40
SMILES: C[C@@H]1CN(C(=O)c2ccc(NC(=O)c3cc(O[C@H](C)c4c(Cl)ccc(F)c4Cl)c(N)nn3)cc2)C[C@H](C)N1 [ENSARTINIB]
pIC50 (NCI-H3122 [5]): 7.82 | Ratio IC50 (NCI-H3122 [6]): 10
